Assay results from patent US20250325677A1, “STAT6 DEGRADERS” (Gilead Sciences, Inc., priority 2024, published 2025).
Read-outs that look alike come from different tables or passages of the source.

Tests used:
[1] = target: STAT6 (Homo sapiens (Human), UniProt P42226); test: STAT6 degrader assay (HiBiT, HeLa LgBiT clone 4.14); format: cell-based; conditions: HeLa LgBiT clone 4.14, 4-24 h; geometric mean; given for compounds with >80% Emax; read-out: STAT6 degradation DC50
Summary of the method: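 HeLa LgBiT clone 4.14 cells with HiBiT knocked into endogenous STAT6 were treated with compound for 4-24 h at 37° C. Luminescence after Nano-GLO substrate (0.5 h) measured remaining STAT6; 50 μM terfenadine wells defined 100% degradation, and DC50 (nM) was derived.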

[2] = test system: eotaxin-3 release; test: Human whole blood eotaxin-3 assay (IL-4 stimulated); format: cell-based; conditions: human whole blood
Protocol: Human Whole Blood Eotaxin-3 Assay
This was a human whole blood assay using recombinant human Interleukin 4 to stimulate the blood and measuring the ability of the test compounds to inhibit eotaxin-3 release. Compounds or media were added to the wells and incubated together with human whole blood for 120 minutes at 37° C. Subsequently, recombinant IL-4 was added at a final concentration of 0.4 nM. The plates were incubated for 48 hours.
Test compounds which inhibited eotaxin-3 release upon stimulation with human IL-4 (E. coli) interfered with the signaling in human whole blood are expected to have activity in human beings. […] The EC50 value indicates at which concentration test compounds were active and in inhibiting the eotaxin-3 release. As eotaxin-3 release is down-stream of STAT6 signaling both STAT6 inhibitors and STAT6 degraders are active in this assay.
The data from the human whole blood eotaxin-3 assay is shown below for Examples 3e27, 3e50, 3e17, and 3e51 (where the effect in % is plotted against the test concentration in M on a log-scale).

[3] = IL-4 0.4 nM, 48 hours, geometric mean, given for compounds with >80% Emax, read-out: Eotaxin-3 EC50

Sequence of STAT6 (P42226 whole entry): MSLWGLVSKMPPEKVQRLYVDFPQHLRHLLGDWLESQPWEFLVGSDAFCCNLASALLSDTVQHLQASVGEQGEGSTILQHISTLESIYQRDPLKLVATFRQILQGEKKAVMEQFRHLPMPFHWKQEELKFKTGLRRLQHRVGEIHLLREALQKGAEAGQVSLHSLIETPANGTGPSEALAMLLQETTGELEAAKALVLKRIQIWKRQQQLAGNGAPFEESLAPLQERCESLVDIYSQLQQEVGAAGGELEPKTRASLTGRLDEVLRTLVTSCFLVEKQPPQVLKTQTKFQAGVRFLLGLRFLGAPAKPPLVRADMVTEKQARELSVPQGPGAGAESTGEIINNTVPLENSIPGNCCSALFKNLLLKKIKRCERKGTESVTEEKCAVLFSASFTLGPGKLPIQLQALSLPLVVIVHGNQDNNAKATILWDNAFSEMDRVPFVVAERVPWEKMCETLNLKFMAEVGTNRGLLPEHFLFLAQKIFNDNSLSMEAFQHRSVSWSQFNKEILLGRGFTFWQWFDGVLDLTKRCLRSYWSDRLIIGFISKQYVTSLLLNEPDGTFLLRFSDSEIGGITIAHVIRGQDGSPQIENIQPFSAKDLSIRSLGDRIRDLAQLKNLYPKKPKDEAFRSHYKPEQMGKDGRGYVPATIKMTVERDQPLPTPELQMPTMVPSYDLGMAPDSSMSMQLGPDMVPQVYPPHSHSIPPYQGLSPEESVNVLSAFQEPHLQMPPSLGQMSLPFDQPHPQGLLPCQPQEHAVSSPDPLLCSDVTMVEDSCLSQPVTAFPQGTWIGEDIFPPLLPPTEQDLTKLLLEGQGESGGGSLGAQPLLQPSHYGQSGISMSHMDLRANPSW

| Structure (SMILES) | DC50 [1] | EC50 [2, 3] | EC50 ([2]; hIL-4 (E. coli) stimulation, read-out: EC50 of inhibition of eotaxin-3 release (reference compound)) | Emax ([2]; hIL-4 (E. coli) stimulation, read-out: Emax of inhibition of eotaxin-3 release) |
| --- | --- | --- | --- | --- |
| C[C@H]1CN(Cc2ccc3c(c2)n(C)c(=O)n3[C@H]2CCC(=O)NC2=O)CCN1CC1CCN(C(=O)c2ccc(C3CCN(Cc4cc5c(-c6ccc(N)nc6)ccnc5n4C)CC3)cc2)CC1 (single isomer, unassigned) [Example 3e19] | 0.7 nM | 20.9 nM |  |  |
| C[C@H]1CN(Cc2ccc3c(c2)n(C)c(=O)n3[C@@H]2CCC(=O)NC2=O)CCN1CC1CCN(C(=O)c2ccc(C3CCN(Cc4cc5c(-c6ccc(N)nc6)ccnc5n4C)CC3)cc2)CC1 (single isomer, unassigned) [Example 3e20] | 1.1 nM | 29.8 nM |  |  |
| C[C@H]1CN(Cc2ccc3c(c2)n(C)c(=O)n3[C@H]2CCC(=O)NC2=O)CCN1CC1CCN(C(=O)c2ccc(C3CCN([C@@H](C)c4cc5c(-c6ccc(N)nc6)ccnc5n4C)CC3)cc2)CC1 (single isomer, unassigned) [Example 3e46] | 0.3 nM | 0.8 nM |  |  |
| C[C@H]1CN(Cc2ccc3c(c2)n(C)c(=O)n3[C@@H]2CCC(=O)NC2=O)CCN1CC1CCN(C(=O)c2ccc(C3CCN([C@@H](C)c4cc5c(-c6ccc(N)nc6)ccnc5n4C)CC3)cc2)CC1 (single isomer, unassigned) [Example 3e49] | 0.3 nM | 1.4 nM |  |  |
| C[C@H]1CN(Cc2ccc3c(c2)n(C2CC2)c(=O)n3[C@@H]2CCC(=O)NC2=O)CCN1CC1CCN(C(=O)c2ccc(C3CCN([C@@H](C)c4cc5c(-c6ccc(N)nc6)ccnc5n4C)CC3)cc2)CC1 (single isomer, unassigned) [Example 3e51] | 0.8 nM | 3.1 nM |  |  |
| C[C@H]1CN(Cc2cc3c(cc2F)n([C@@H]2CCC(=O)NC2=O)c(=O)n3C2CC2)CCN1CC1CCN(C(=O)c2ccc(C3CCN([C@@H](C)c4cc5c(-c6ccc(N)nc6)ccnc5n4C)CC3)cc2)CC1 (single isomer, unassigned) [Example 3e61] | 1.4 nM | 3.5 nM |  |  |
| CC[C@H]1CN(Cc2ccc3c(c2)n(C2CC2)c(=O)n3[C@@H]2CCC(=O)NC2=O)CCN1CC1CCN(C(=O)c2ccc(C3CCN([C@@H](C)c4cc5c(-c6ccc(N)nc6)ccnc5n4C)CC3)cc2)CC1 (single isomer, unassigned) [Example 3e64] | 2 nM | 6 nM |  |  |
| CNc1ccc(-c2ccnc3c2cc([C@H](C)N2CC=C(c4c(F)cc(C(=O)N5CCC(CN6CCN(Cc7ccc8c(c7)C7(CC7)C(=O)N8C7CCC(=O)NC7=O)C[C@@H]6C)CC5)cc4F)CC2)n3C)cn1 (stereo partly drawn) [Example 3h36, 3-(5′-(((S)-4-((1-(3,5-difluoro-4-(1-((S)-1-(1-methyl-4-(6-(methylamino)pyridin-3-yl)-1H-pyrrolo[2,3-b]pyridin-2-yl)ethyl)-1,2,3,6-tetrahydropyridin-4-yl)benzoyl)piperidin-4-yl)methyl)-3-methylpiperazin-1-yl)methyl)-2′-oxospiro[cyclopropane-1,3′-indolin]-1′-yl)piperidine-2,6-dione] |  | 8.3 nM |  |  |
| CNc1ccc(-c2ccnc3c2cc([C@H](C)N2CC=C(c4c(C)cc(C(=O)N5CCC(CN6CCN(c7cc8c(cc7F)n(C7CCC(=O)NC7=O)c(=O)n8C)CC6)CC5)cc4F)CC2)n3C)cn1 (stereo partly drawn) [Example 3h45, 3-(6-fluoro-5-(4-((1-(3-fluoro-5-methyl-4-(1-((S)-1-(1-methyl-4-(6-(methylamino)pyridin-3-yl)-1H-pyrrolo[2,3-b]pyridin-2-yl)ethyl)-1,2,3,6-tetrahydropyridin-4-yl)benzoyl)piperidin-4-yl)methyl)piperazin-1-yl)-3-methyl-2-oxo-2,3-dihydro-1H-benzo[d]imidazol-1-yl)piperidine-2,6-dione] |  | 6.7 nM |  |  |
| C[C@H]1CN(c2ccc3c(c2)C2(CC2)C(=O)N3C2CCC(=O)NC2=O)CCN1CC1CCN(C(=O)c2ccc(C3CCN([C@@H](C)c4cc5c(-c6ccc(N)nc6)ccnc5n4C)CC3)cc2)CC1 (stereo partly drawn) [Example 3h46, 3-(5′-((S)-4-((1-(4-(1-((S)-1-(4-(6-aminopyridin-3-yl)-1-methyl-1H-pyrrolo[2,3-b]pyridin-2-yl)ethyl)piperidin-4-yl)benzoyl)piperidin-4-yl)methyl)-3-methylpiperazin-1-yl)-2′-oxospiro[cyclopropane-1,3′-indolin]-1′-yl)piperidine-2,6-dione] |  | 230 nM |  |  |
| CCCS(=O)(=O)N[C@H]1C[C@@H](N(C)c2ncnc3[nH]ccc23)C1 [abroticinib, abrocitinib, reference compound] |  |  | ~450 nM | ~100% |

Further molecules by falling EC50 [2, 3], results first:

| DC50 [1] | EC50 [2, 3] | EC50 ([2]; hIL-4 (E. coli) stimulation, read-out: EC50 of inhibition of eotaxin-3 release (reference compound)) | Structure (SMILES) | Emax ([2]; hIL-4 (E. coli) stimulation, read-out: Emax of inhibition of eotaxin-3 release) |
| --- | --- | --- | --- | --- |
|  | 95.5 nM |  | CNc1ccc(-c2ccnc3c2cc(CN2CC=C(c4c(F)cc(C(=O)N5CCC(CN6CCN(Cc7ccc8c(c7)C7(CC7)C(=O)N8C7CCC(=O)NC7=O)C[C@@H]6C)CC5)cc4F)CC2)n3C)cn1 (stereo partly drawn) [Example 3h37, 3-(5′-(((S)-4-((1-(3,5-difluoro-4-(1-((1-methyl-4-(6-(methylamino)pyridin-3-yl)-1H-pyrrolo[2,3-b]pyridin-2-yl)methyl)-1,2,3,6-tetrahydropyridin-4-yl)benzoyl)piperidin-4-yl)methyl)-3-methylpiperazin-1-yl)methyl)-2′-oxospiro[cyclopropane-1,3′-indolin]-1′-yl)piperidine-2,6-dione] |  |
|  | 31.7 nM |  | C[C@H]1CN(Cc2cc3c(cc2F)N(C2CCC(=O)NC2=O)C(=O)C3(C)C)CCN1CC1CCN(C(=O)c2ccc(C3CCN([C@@H](C)c4cc5c(-c6ccc(N)nc6)ccnc5n4C)CC3)cc2)CC1 (stereo partly drawn) [Example 3h35, 3-(5-(((S)-4-((1-(4-(1-((S)-1-(4-(6-aminopyridin-3-yl)-1-methyl-1H-pyrrolo[2,3-b]pyridin-2-yl)ethyl)piperidin-4-yl)benzoyl)piperidin-4-yl)methyl)-3-methylpiperazin-1-yl)methyl)-6-fluoro-3,3-dimethyl-2-oxoindolin-1-yl)piperidine-2,6-dione] |  |
|  | 19.4 nM |  | C[C@@H](c1cc2c(-c3ccc(N)nc3)ccnc2n1C)N1CCC(c2ccc(C(=O)N3CCC(CN4CCN(c5cc6c(cc5F)n(C5CCC(=O)NC5=O)c(=O)n6C)CC4)CC3)cc2)CC1 (stereo partly drawn) [Example 3h44, 3-(5-(4-((1-(4-(1-((S)-1-(4-(6-aminopyridin-3-yl)-1-methyl-1H-pyrrolo[2,3-b]pyridin-2-yl)ethyl)piperidin-4-yl)benzoyl)piperidin-4-yl)methyl)piperazin-1-yl)-6-fluoro-3-methyl-2-oxo-2,3-dihydro-1H-benzo[d]imidazol-1-yl)piperidine-2,6-dione] |  |
| 1.8 nM | 5.8 nM |  | CNc1ccc(-c2ccnc3c2cc([C@H](C)N2CCC(c4ccc(C(=O)N5CCC(CN6CCN(Cc7ccc8c(c7)n(C7CC7)c(=O)n8[C@@H]7CCC(=O)NC7=O)C[C@@H]6C)CC5)cc4)CC2)n3C)cn1 (single isomer, unassigned) [Example 3h27] |  |
| 2.6 nM | 5.4 nM |  | CC[C@H]1CN(Cc2ccc3c(c2)n(C2CC2)c(=O)n3[C@H]2CCC(=O)NC2=O)CCN1CC1CCN(C(=O)c2ccc(C3CCN([C@@H](C)c4cc5c(-c6ccc(N)nc6)ccnc5n4C)CC3)cc2)CC1 (single isomer, unassigned) [Example 3e65] |  |
| 0.8 nM | 4.9 nM |  | C[C@H]1CN(Cc2cc3c(cc2F)n([C@H]2CCC(=O)NC2=O)c(=O)n3C2CC2)CCN1CC1CCN(C(=O)c2ccc(C3CCN([C@@H](C)c4cc5c(-c6ccc(N)nc6)ccnc5n4C)CC3)cc2)CC1 (single isomer, unassigned) [Example 3e62] |  |
| 1.4 nM | 3.1 nM |  | CNc1ccc(-c2ccnc3c2cc([C@H](C)N2CCC(c4ccc(C(=O)N5CCC(CN6CCN(Cc7ccc8c(c7)n(C7CC7)c(=O)n8[C@H]7CCC(=O)NC7=O)C[C@@H]6C)CC5)cc4)CC2)n3C)cn1 (single isomer, unassigned) [Example 3h26] |  |
| 1 nM | 2.3 nM |  | C[C@H]1CN(Cc2ccc3c(c2)n(C2CC2)c(=O)n3[C@H]2CCC(=O)NC2=O)CCN1CC1CCN(C(=O)c2ccc(C3CCN([C@@H](C)c4cc5c(-c6ccc(N)nc6)ccnc5n4C)CC3)cc2)CC1 (single isomer, unassigned) [Example 3e50] |  |
| 0.4 nM | 1.8 nM |  | C[C@H]1CN(Cc2cc3c(cc2F)n(C2CCC(=O)NC2=O)c(=O)n3C)CCN1CC1CCN(C(=O)c2ccc(C3CCN([C@@H](C)c4cc5c(-c6ccc(N)nc6)ccnc5n4C)CC3)cc2)CC1 (mixture of isomers) [Example 3e34, 3-(5-(((S)-4-((1-(4-(1-((S)-1-(4-(6-aminopyridin-3-yl)-1-methyl-1H-pyrrolo[2,3-b]pyridin-2-yl)ethyl)piperidin-4-yl)benzoyl)piperidin-4-yl)methyl)-3-methylpiperazin-1-yl)methyl)-6-fluoro-3-methyl-2-oxo-2,3-dihydro-1H-benzo[d]imidazol-1-yl)piperidine-2,6-dione] |  |
| 0.3 nM | 1.2 nM |  | C[C@H]1CN(Cc2cc3c(cc2F)n([C@@H]2CCC(=O)NC2=O)c(=O)n3C)CCN1CC1CCN(C(=O)c2ccc(C3CCN([C@@H](C)c4cc5c(-c6ccc(N)nc6)ccnc5n4C)CC3)cc2)CC1 (single isomer, unassigned) [Example 3e60] |  |
| 0.2 nM | 1.2 nM |  | C[C@H]1CN(Cc2cc3c(cc2F)n([C@H]2CCC(=O)NC2=O)c(=O)n3C)CCN1CC1CCN(C(=O)c2ccc(C3CCN([C@@H](C)c4cc5c(-c6ccc(N)nc6)ccnc5n4C)CC3)cc2)CC1 (single isomer, unassigned) [Example 3e63] |  |
